Test results published in patent EP2396329B1, “COMPOUNDS FOR THE TREATMENT OF HEPATITIS C” (priority 2009, dated 2010).
Read-outs that look alike come from different tables or passages of the source.

Key:
[1] = molecular target: T1, HCV NS5B (Hepatitis C virus genotype 1b, UniProt Q9WMX2); experiment: HCV NS5B RdRp enzyme assay (standard or modified); assay type: biochemical; conditions: HCV NS5B RdRp enzyme, genotype 1b; read-out: IC50
T1 construct: The protein was expressed with an 18 amino acid C-terminal truncation to enhance the solubility; made in house; host or cells: E. coli BL21(DE3)
Protocol: HCV NS5B RdRp cloning, expression, and purification. The cDNA encoding the NS5B protein of HCV, genotype 1b, was cloned into the pET21a expression vector. The protein was expressed with an 18 amino acid C-terminal truncation to enhance the solubility. The E. coli competent cell line BL21(DE3) was used for expression of the protein. Cultures were grown at 37 °C for ~ 4 hours until the cultures reached an optical density of 2.0 at 600 nm. The cultures were cooled to 20 °C and induced with I mM IPTG. Fresh ampicillin was added to a final concentration of 50 µg/ml and the cells were grown overnight at 20 °C.
Cell pellets (3L) were lysed for purification to yield 15-24 mgs of purified NS5B. The lysis buffer consisted of 20 mM Tris-HCl, pH 7.4, 500 mM NaCl, 0.5% triton X-100, 1 mM DTT, 1mM EDTA, 20% glycerol, 0.5 mg/ml lysozyme, 10 mM MgCl2, 15 ug/ml deoxyribonuclease I, and Complete TM protease inhibitor tablets (Roche). After addition of the lysis buffer, frozen cell pellets were resuspended using a tissue homogenizer. To reduce the viscosity of the sample, aliquots of the lysate were sonicated on ice using a microtip attached to a Branson sonicator. The sonicated lysate was centrifuged at 100,000 x g for 1hr at 4 °C and filtered through a 0.2 µm filter unit (Corning).
The protein was purified using three sequential chromatography steps: Heparin sepharose CL-6B, polyU sepharose 4B, and Hitrap SP sepharose (Pharmacia). The chromatography buffers were identical to the lysis buffer but contained no lysozyme, deoxyribonuclease I, MgCl2 or protease inhibitor and the NaCl concentration of the buffer was adjusted according to the requirements for charging the protein onto the column. Each column was eluted with a NaCl gradient which varied in length from 5-50 column volumes depending on the column type. After the final chromatography step, the resulting purity of the enzyme is >90% based on SDS-PAGE analysis. The enzyme was aliquoted and stored at -80 °C.
Standard HCV NS5B RdRp enzyme assay. HCV RdRp genotype 1b assays were run in a final volume of 60 µl in 96 well plates (Costar 3912). The assay buffer is composed of 20 mM Hepes, pH 7.5, 2.5 mM KCI, 2.5 mM MgCl2, 1 mM DTT, 1.6 U RNAse inhibitor (Promega N2515), 0.1 mg/ml BSA (Promega R3961), and 2 % glycerol. All compounds were serially diluted (3-fold) in DMSO and diluted further in water such that the final concentration of DMSO in the assay was 2%. HCV RdRp genotype Ib enzyme was used at a final concentration of 28 nM. A polyA template was used at.6 nM, and a biotinylated oligo-dT12 primer was used at 180 nM final concentration. Template was obtained commercially (Amersham 27-4110). Biotinylated primer was prepared by Sigma Genosys. 3H-UTP was used at 0.6 µCi (0.29 µM total UTP). Reactions were initiated by the addition of enzyme, incubated at 30 °C for 60 min, and stopped by adding 25 µl of 50 mM EDTA containing SPA beads (4 µg/µl, Amersham RPNQ 0007). Plates were read on a Packard Top Count NXT after > 1hr incubation at room temperature.
Modified HCV NS5B RdRp enzyme assay. A modified enzyme assay was performed essentially as described for the standard enzyme assay except for the following: The biotinylated oligo dT12 primer was precaptured on streptavidin-coated SPA beads by mixing primer and beads in assay buffer and incubating at room temperature for one hour. Unbound primer was removed after centrifugation. The primer-bound beads were resuspended in 20 mM Hepes buffer, pH 7.5 and used in the assay at final concentrations of 20 nM primer and 0.67 µg/µl beads. Order of addition in the assay: enzyme (14 nM) was added to diluted compound followed by the addition of a mixture of template (0.2 nM), 3H-UTP (0.6 µCi, 0.29 µM), and primer-bound beads, to initiate the reaction; concentrations given are final. Reactions were allowed to proceed for 4 hours at 30° C.
IC50 values for compounds were determined using seven different [I]. […]

[2] = test system: HCV replicon; experiment: HCV replicon assay (FRET or luciferase readout); assay type: cell-based; conditions: Hepatitis C virus
Excerpt: FRET Assay Preparation. To perform the HCV FRET screening assay, 96-well cell culture plates were used. The FRET peptide (Anaspec, Inc.) (Taliani et al., Anal. Biochem. 1996, 240, 60-67) contains a fluorescence donor, EDANS, near one end of the peptide and an acceptor, DABCYL, near the other end. The fluorescence of the peptide is quenched by […] resonance energy transfer (RET) between the donor and the acceptor, but as the NS3 protease cleaves the peptide the products are released from RET quenching and the fluorescence of the donor becomes apparent. The assay reagent was made as follows: 5X cell Luciferase cell culture lysis reagent from Promega (#E153A) diluted to 1X with dH2O, NaCl added to 150 mM final, the FRET peptide diluted to 20 µM final from a 2 mM stock.
To prepare plates, HCV replicon cells, with or without a Renilla luciferase reporter gene, were trypsinized and placed into each well of a 96-well plate with titrated test compounds added in columns 3 through 12; columns 1 and 2 contained a control compound (HCV protease inhibitor), and the bottom row contained cells without compound. The plates were then placed in a CO2 incubator at 37 °C.
Assays. Subsequent to addition of the test compounds described above (FRET Assay Preparation), at various times the plate was removed and Alamar blue solution (Trek Diagnostics, #00-100) was added per well as a measure of cellular toxicity. After reading in a Cytoflour 4000 instrument (PE Biosystems), plates were rinsed with PBS and then used for FRET assay by the addition of 30 ul of the FRET peptide assay reagent described above (FRET Assay Preparation) per well. The plate was then placed into the Cytoflour 4000 instrument which had been set to 340 excite/490 emission, automatic mode for 20 cycles and the plate read in a kinetic mode. Typically, the signal to noise using an endpoint analysis after the reads was at least three-fold. Alternatively, after Alamar blue reading, plates were rinsed with PBS, 50 ul of DMEM (high glucose) without phenol red was added and plates were then used for luciferase assay using the Promega Dual-Glo Luciferase Assay System.
Compound analysis was determined by quantification of the relative HCV replicon inhibition and the relative cytotoxicity values. To calculate cytoxicity values, the average Alamar Blue fluorescence signals from the control wells were set as 100% non-toxic. The individual signals in each of the compound test wells were then divided by the average control signal and multiplied by 100% to determine […]. To calculate the HCV replicon inhibition values, an average background value was obtained from the two wells containing the highest amount of HCV protease inhibitor at the end of the assay period. These numbers were similar to those obtained from naïve Huh-7 cells.
The background numbers were then subtracted from the average signal obtained from the control wells and this number was used as 100% activity. The individual signals in each of the compound test wells were then divided by the averaged control values after background subtraction and multiplied by 100% to determine percent activity. EC50 values for a protease inhibitor titration were calculated as the concentration which caused a 50% reduction in FRET or luciferase activity. The two numbers generated for the compound plate, percent cytoxicity and percent activity were used to determine compounds of interest for further analysis.

[3] = HCV replicon cells, FRET or luciferase activity, read-out: EC50

T1 sequence (Q9WMX2 2420-2992): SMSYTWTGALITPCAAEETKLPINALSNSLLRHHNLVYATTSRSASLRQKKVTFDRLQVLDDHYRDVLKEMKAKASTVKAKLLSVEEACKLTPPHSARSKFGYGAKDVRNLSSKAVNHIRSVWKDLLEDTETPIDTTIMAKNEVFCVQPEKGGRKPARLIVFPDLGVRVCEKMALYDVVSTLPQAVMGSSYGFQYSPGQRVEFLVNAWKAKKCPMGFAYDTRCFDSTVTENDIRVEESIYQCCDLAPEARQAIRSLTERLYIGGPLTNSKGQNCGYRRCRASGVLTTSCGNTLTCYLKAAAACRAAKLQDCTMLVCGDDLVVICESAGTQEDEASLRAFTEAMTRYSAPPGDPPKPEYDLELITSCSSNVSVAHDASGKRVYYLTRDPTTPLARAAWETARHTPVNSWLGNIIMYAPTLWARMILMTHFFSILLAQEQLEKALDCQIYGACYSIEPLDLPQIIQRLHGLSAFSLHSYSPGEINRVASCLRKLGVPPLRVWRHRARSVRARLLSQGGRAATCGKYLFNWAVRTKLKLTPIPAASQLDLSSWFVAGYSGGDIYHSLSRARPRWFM

## COC[C@@H]1CN(C(=O)c2c(C)nn(C)c2C2=Cc3cc(OC)ccc3-c3c(C4CCCCC4)c4ccc(C(=O)NS(=O)(=O)C(C)C)cc4n3C2)CCO1
[1]
  IC50: 1 to 500 nM
[2]; [3]
  EC50: 1 to 500 nM

## COc1ccc2c(c1)C=C(c1c(C(=O)N3CCN(C)CC3)c(C)nn1C)Cn1c-2c(C2CCCCC2)c2ccc(C(=O)NS(=O)(=O)C(C)C)cc21
[1]
  IC50: 1 to 500 nM
[2]; [3]
  EC50: 1 to 500 nM

## COc1ccc2c(c1)C=C(c1c(C(=O)N3CCOCC3)c(C(C)C)nn1C)Cn1c-2c(C2CCCCC2)c2ccc(C(=O)NS(=O)(=O)C(C)C)cc21
[1]
  IC50: 1 to 500 nM
[2]; [3]
  EC50: 1 to 500 nM

## COc1ccc2c(c1)C=C(c1c(C(=O)N3C[C@@H](C)O[C@@H](C)C3)c(C(C)C)nn1C)Cn1c-2c(C2CCCCC2)c2ccc(C(=O)NS(=O)(=O)C(C)C)cc21
[1]
  IC50: 1 to 500 nM
[2]; [3]
  EC50: 1 to 500 nM

## CCOC(=O)c1c(C)nn(CC)c1C1=Cc2cc(OC)ccc2-c2c(C3CCCCC3)c3ccc(C(=O)O)cc3n2C1
[1]
  IC50: 1 to 500 nM
[2]; [3]
  EC50: > 500 nM

## CCOC(=O)c1c(C)nn(CC)c1C1=Cc2cc(OC)ccc2-c2c(C3CCCCC3)c3ccc(C(=O)NS(=O)(=O)C(C)C)cc3n2C1
[1]
  IC50: 1 to 500 nM
[2]; [3]
  EC50: > 500 nM

## CCOC(=O)c1c(C)nn(CC)c1C1=Cc2cc(OC)ccc2-c2c(C3CCCCC3)c3ccc(C(N)=O)cc3n2C1
[1]
  IC50: 1 to 500 nM
[2]; [3]
  EC50: > 500 nM

## CCOC(=O)c1cnn(CC)c1C1=Cc2cc(OC)ccc2-c2c(C3CCCCC3)c3ccc(C(=O)OC(C)(C)C)cc3n2C1
[1]
  IC50: > 500 nM
[2]; [3]
  EC50: > 500 nM

## CCOC(=O)c1cnn(CC)c1C1=Cc2cc(OC)ccc2-c2c(C3CCCCC3)c3ccc(C(=O)O)cc3n2C1
[1]
  IC50: 1 to 500 nM
[2]; [3]
  EC50: > 500 nM

## CCOC(=O)c1cnn(CC)c1C1=Cc2cc(OC)ccc2-c2c(C3CCCCC3)c3ccc(C(=O)NS(=O)(=O)C(C)C)cc3n2C1
[1]
  IC50: 1 to 500 nM
[2]; [3]
  EC50: > 500 nM

## CCn1ncc(C(=O)N2C[C@@H](C)O[C@@H](C)C2)c1C1=Cc2cc(OC)ccc2-c2c(C3CCCCC3)c3ccc(C(=O)NS(=O)(=O)C(C)C)cc3n2C1
[1]
  IC50: 1 to 500 nM
[2]; [3]
  EC50: 1 to 500 nM

## CCn1nc(C)c(C(=O)N2C[C@@H](C)O[C@@H](C)C2)c1C1=Cc2cc(OC)ccc2-c2c(C3CCCCC3)c3ccc(C(=O)NS(=O)(=O)N(C)C)cc3n2C1
[1]
  IC50: 1 to 500 nM
[2]; [3]
  EC50: 1 to 500 nM

## CCn1nc(C)c(C(=O)N2C[C@@H](C)O[C@@H](C)C2)c1C1=Cc2cc(OC)ccc2-c2c(C3CCCCC3)c3ccc(C(=O)NS(=O)(=O)C4CC4)cc3n2C1
[1]
  IC50: 1 to 500 nM
[2]; [3]
  EC50: 1 to 500 nM

## COc1ccc2c(c1)C=C(c1nn(C(C)C)c(C)c1C(=O)N1C[C@@H](C)N(C)[C@@H](C)C1)Cn1c-2c(C2CCCCC2)c2ccc(C(=O)NS(=O)(=O)C(C)C)cc21
[1]
  IC50: 1 to 500 nM
[2]; [3]
  EC50: 1 to 500 nM

## CCN1CC2CC1CN2C(=O)c1c(C)nn(CC)c1C1=Cc2cc(OC)ccc2-c2c(C3CCCCC3)c3ccc(C(=O)NS(=O)(=O)C(C)C)cc3n2C1 (stereo not shown)
[1]
  IC50: 1 to 500 nM
[2]
  EC50: 1 to 500 nM

## CCn1nc(C)c(C(=O)N2CCOCC2)c1C1=Cc2cc(OC)ccc2-c2c(C3CCCCC3)c3ccc(C(=O)NS(=O)(=O)C(C)C)cc3n2C1
[1]
  IC50: 1 to 500 nM
[2]; [3]
  EC50: 1 to 500 nM

## COc1ccc2c(c1)C=C(c1c(C(=O)N3C[C@@H](C)O[C@@H](C)C3)nnn1C(C)C)Cn1c-2c(C2CCCCC2)c2ccc(C(=O)NS(=O)(=O)C(C)C)cc21
[1]
  IC50: 1 to 500 nM
[2]; [3]
  EC50: 1 to 500 nM

## COc1ccc2c(c1)C=C(c1c(C(=O)N3C[C@@H](C)N(C)[C@@H](C)C3)nnn1C(C)C)Cn1c-2c(C2CCCCC2)c2ccc(C(=O)NS(=O)(=O)C(C)C)cc21
[1]
  IC50: 1 to 500 nM
[2]; [3]
  EC50: 1 to 500 nM

## COc1ccc2c(c1)C=C(c1c(C(=O)N3C[C@@H](C)O[C@@H](C)C3)ncn1C(C)C)Cn1c-2c(C2CCCCC2)c2ccc(C(=O)NS(=O)(=O)C(C)C)cc21
[1]
  IC50: 1 to 500 nM
[2]; [3]
  EC50: 1 to 500 nM

## COc1ccc2c(c1)C=C(c1c(C(=O)N3CCOCC3)ncn1C(C)C)Cn1c-2c(C2CCCCC2)c2ccc(C(=O)NS(=O)(=O)C(C)C)cc21
[1]
  IC50: 1 to 500 nM
[2]; [3]
  EC50: 1 to 500 nM

## COc1ccc2c(c1)C=C(c1c(C(=O)N3C[C@@H](C)N(C)[C@@H](C)C3)ncn1C(C)C)Cn1c-2c(C2CCCCC2)c2ccc(C(=O)NS(=O)(=O)C(C)C)cc21
[1]
  IC50: 1 to 500 nM
[2]; [3]
  EC50: 1 to 500 nM

## COc1ccc2c(c1)C=C(c1ncn(C(C)C)c1C(=O)N1C[C@@H](C)O[C@@H](C)C1)Cn1c-2c(C2CCCCC2)c2ccc(C(=O)NS(=O)(=O)N(C)C)cc21
[1]
  IC50: 1 to 500 nM
[2]; [3]
  EC50: 1 to 500 nM

## COc1ccc2c(c1)C=C(c1ncn(C(C)C)c1C(=O)N1CCOCC1)Cn1c-2c(C2CCCCC2)c2ccc(C(=O)NS(=O)(=O)N(C)C)cc21
[1]
  IC50: 1 to 500 nM
[2]; [3]
  EC50: 1 to 500 nM

## COc1ccc2c(c1)C=C(c1c(C(=O)N3C[C@@H](C)N(C)[C@@H](C)C3)nnn1C(C)C)Cn1c-2c(C2CCCCC2)c2ccc(C(=O)NS(=O)(=O)N(C)C)cc21
[1]
  IC50: 1 to 500 nM
[2]; [3]
  EC50: 1 to 500 nM

## COc1ccc2c(c1)C=C(c1c(C(=O)N3C[C@@H](C)O[C@@H](C)C3)nnn1C(C)C)Cn1c-2c(C2CCCCC2)c2ccc(C(=O)NS(=O)(=O)N(C)C)cc21
[1]
  IC50: 1 to 500 nM
[2]; [3]
  EC50: 1 to 500 nM

## COc1ccc2c(c1)C=C(c1c(C(=O)N3CCOCC3)nnn1C(C)C)Cn1c-2c(C2CCCCC2)c2ccc(C(=O)NS(=O)(=O)N(C)C)cc21
[1]
  IC50: 1 to 500 nM
[2]; [3]
  EC50: 1 to 500 nM
